Data taken from patent publication US20160166572A1, “BENEFICIAL EFFECTS OF Lp-PLA2 INHIBITORS IN TREATMENT OF DIABETIC RETINOPATHY AND AGE-RELATED MACULAR DEGENERATION” (Rowan University, priority 2014, published 2016).

Key:
[1] = test system: claudin5; experiment: Claudin5 gene expression in cerebral cortex (RT-PCR, beta-actin reference), DMHC pigs; assay type: in vivo, pig; conditions: Darapladib 10 mg/kg/d orally, 24 weeks, rank among treatment groups, FIG. 8A
Method: Briefly, after induction of diabetes by a single injection of Streptozotocin, animals were fed a high cholesterol diet. After a month of DMHC induction and acclimation, animals were randomly segregated to untreated DMHC and Darapladib-treated DMHC groups. Darapladib-treated pigs received 10 mg/kg/d of Darapladib orally. Three of the pigs were spared from DMHC induction and served as age-matched, non-DMHC normal controls. Twenty four weeks after acclimation, animals were euthanized and their brains and eyes were immediately removed. Brains were divided anteroposteriorly into anterior, middle and posterior regions. […]
Relative quantification of claudin5 and occludin gene expression was carried out using the reporter dye SYBR green and Applied Biosystems 7500 real time polymerase chain reaction (RT-PCR) system. […] Relative quantification of the claudin5 and occludin gene expression was conducted using beta actin (β-actin), a house keeping gene, as a standard. The amplification profiles of all samples were analyzed using Applied Biosystems software. […]
Changes in claudin 5 and occludin gene expression in response to DMHC and Darapladib treatment were assessed in the middle brain region only of the pig cerebral cortex by real-time polymerase chain reaction (RT-PCR) using beta-actin as a reference (FIG. 8).

[2] = test system: GFAP; experiment: GFAP expression in retina (immunofluorescence), DMHC pigs; assay type: in vivo, pig; conditions: Darapladib 10 mg/kg/d orally, 24 weeks
Method: Briefly, after induction of diabetes by a single injection of Streptozotocin, animals were fed a high cholesterol diet. After a month of DMHC induction and acclimation, animals were randomly segregated to untreated DMHC and Darapladib-treated DMHC groups. Darapladib-treated pigs received 10 mg/kg/d of Darapladib orally. Three of the pigs were spared from DMHC induction and served as age-matched, non-DMHC normal controls. Twenty four weeks after acclimation, animals were euthanized and their brains and eyes were immediately removed. Brains were divided anteroposteriorly into anterior, middle and posterior regions. For each of these brain regions, 2-3 tissue blocks were generated for routine tissue fixation (10% formalin) or freezing and histological processing. […] Cells positive for GFAP were counted throughout the whole thickness of the retina, and then quantified using ImagePro7.0 (Media Cybernetics, Silver Spring, Md.). Briefly, a 300×300 pixel square area was randomly made in each retinal section in three contiguous locations across the retina and the positive GFAP area was determined per total area using a fixed threshold. […] Cell number was determined by counting the DAPI-positive nuclei in a fixed area. […] GFAP-positive fluorescence extended from inner to outer limiting membranes in the DMHC group, confirming that GFAP was predominantly being expressed by Müller cells (FIGS. 5A-E). […]

`CCN(CC)CCN(Cc1ccc(-c2ccc(C(F)(F)F)cc2)cc1)C(=O)Cn1c(SCc2ccc(F)cc2)nc(=O)c2c1CCC2` [Darapladib] was tested, and the “claudin5 gene expression, middle brain region of cerebral cortex” value [1] was “highest claudin5 and occludin levels”, the “intensity of GFAP immunostaining (GFAP expression) in retina” value ([2]; FIG. 5D) was “dramatically lower GFAP expression in the retinas of DMHC pigs, it was still significantly higher than in controls” and the “GFAP immunoreactivity, distribution in retina” value ([2]; compared to DMHC only, FIGS. 5A-C) was “reduced and confined to the GCL”.
